Holding throughout (experiment): relative viability (nuclei count vs DMSO), 5 days (fraction); higher = more cells survive
Compound in the assay “IMD-0354 + Dasatinib”: O=C(Nc1cc(C(F)(F)F)cc(C(F)(F)F)c1)c1cc(Cl)ccc1O [IMD-0354] + Cc1nc(Nc2ncc(C(=O)Nc3c(C)cccc3Cl)s2)cc(N2CCN(CCO)CC2)n1 [Dasatinib] (partner 0.075 µM)
The procedure, abridged:
(§1)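 Lung cancer cell lines were pin-tool dosed in 1536-well plates on the day after seeding, with either a lone drug or a fixed anchor-drug dose plus five library-drug doses (not always all listed) in √10 steps. Nuclei were counted on 4× images after 5 days. Relative viability is the ratio of treated-well to vehicle-well nuclei counts, with each value a median of duplicate plates.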

Compound in the assay “CX-5461 + Crizotinib”: Cc1cnc(CNC(=O)c2c(=O)c3ccc(N4CCCN(C)CC4)nc3n3c2sc2ccccc23)cn1 [CX-5461] + C[C@@H](Oc1cc(-c2cnn(C3CCNCC3)c2)cnc1N)c1c(Cl)ccc(F)c1Cl [Crizotinib] (partner 1 µM)
The procedure, abridged: as §1

Compound in the assay “IMD-0354 + Navitoclax”: O=C(Nc1cc(C(F)(F)F)cc(C(F)(F)F)c1)c1cc(Cl)ccc1O [IMD-0354] + CC1(C)CCC(c2ccc(Cl)cc2)=C(CN2CCN(c3ccc(C(=O)NS(=O)(=O)c4ccc(N[C@H](CCN5CCOCC5)CSc5ccccc5)c(S(=O)(=O)C(F)(F)F)c4)cc3)CC2)C1 [Navitoclax] (partner 0.5 µM)
The procedure, abridged:
as §1

Compound in the assay “IMD-0354 + Luminespib”: O=C(Nc1cc(C(F)(F)F)cc(C(F)(F)F)c1)c1cc(Cl)ccc1O [IMD-0354] + CCNC(=O)c1noc(-c2cc(C(C)C)c(O)cc2O)c1-c1ccc(CN2CCOCC2)cc1 [Luminespib] (partner 0.01 µM)
The procedure, abridged: as §1

On to HCC-78, for which the relative viability in the assay with IMD-0354 + Dasatinib (first compound 0.04 µM) came out at 0.429; with IMD-0354 + Dasatinib (first compound 0.1265 µM) it was 0.466; with IMD-0354 + Dasatinib (first compound 0.4 µM), 0.294; in the assay with IMD-0354 + Dasatinib (first compound 1.265 µM) it was 0.275; with IMD-0354 + Dasatinib (first compound 4 µM), 0.232; with CX-5461 + Crizotinib (first compound 0.01 µM), 0.357. The relative viability with CX-5461 + Crizotinib (first compound 0.03162 µM) was determined as 0.36; with CX-5461 + Crizotinib (first compound 0.1 µM) it was 0.358; with CX-5461 + Crizotinib (first compound 0.3162 µM) it was 0.243; in the assay with CX-5461 + Crizotinib (first compound 1 µM) it was 0.328; with IMD-0354 + Navitoclax (first compound 0.04 µM), 0.691; with IMD-0354 + Navitoclax (first compound 0.1265 µM), 0.761. The relative viability with IMD-0354 + Navitoclax (first compound 0.4 µM) worked out at 0.509; with IMD-0354 + Navitoclax (first compound 1.265 µM), 0.571; in the assay with IMD-0354 + Navitoclax (first compound 4 µM), 0.24.

On to HCC-366, for which the relative viability with IMD-0354 + Dasatinib (first compound 0.04 µM) turned out to be 0.681; with IMD-0354 + Dasatinib (first compound 0.1265 µM), 0.792; in the assay with IMD-0354 + Dasatinib (first compound 0.4 µM) it was 0.382; with IMD-0354 + Dasatinib (first compound 1.265 µM), 0.221; with IMD-0354 + Dasatinib (first compound 4 µM), 0.0518; with CX-5461 + Crizotinib (first compound 0.01 µM) it was 0.693. In addition, the relative viability was determined as 0.82 with CX-5461 + Crizotinib (first compound 0.03162 µM); 0.573 with CX-5461 + Crizotinib (first compound 0.1 µM); 0.252 with CX-5461 + Crizotinib (first compound 0.3162 µM); 0.48 with CX-5461 + Crizotinib (first compound 1 µM); 1.03 with IMD-0354 + Navitoclax (first compound 0.04 µM); 1.17 in the assay with IMD-0354 + Navitoclax (first compound 0.1265 µM). In addition, the relative viability stood at 0.235 in the assay with IMD-0354 + Navitoclax (first compound 0.4 µM), 0.27 with IMD-0354 + Navitoclax (first compound 1.265 µM) and 0.0258 in the assay with IMD-0354 + Navitoclax (first compound 4 µM).

As for HCC-827, the relative viability came out at 0.357 in the assay with IMD-0354 + Dasatinib (first compound 0.04 µM); 0.301 with IMD-0354 + Dasatinib (first compound 0.1265 µM); 0.348 in the assay with IMD-0354 + Dasatinib (first compound 0.4 µM); 0.235 with IMD-0354 + Dasatinib (first compound 1.265 µM); 0.248 in the assay with IMD-0354 + Dasatinib (first compound 4 µM); 0.876 with CX-5461 + Crizotinib (first compound 0.01 µM). For the same cell line, the relative viability in the assay with CX-5461 + Crizotinib (first compound 0.03162 µM) was 0.877; with CX-5461 + Crizotinib (first compound 0.1 µM), 0.905; with CX-5461 + Crizotinib (first compound 0.3162 µM), 0.866; in the assay with CX-5461 + Crizotinib (first compound 1 µM), 0.846; in the assay with IMD-0354 + Navitoclax (first compound 0.04 µM) it was 0.983; with IMD-0354 + Navitoclax (first compound 0.1265 µM) it was 0.955. Moreover, the relative viability with IMD-0354 + Navitoclax (first compound 0.4 µM) is 0.892; with IMD-0354 + Navitoclax (first compound 1.265 µM), 0.759; with IMD-0354 + Navitoclax (first compound 4 µM), 0.293; in the assay with IMD-0354 + Luminespib (first compound 0.04 µM), 0.686; in the assay with IMD-0354 + Luminespib (first compound 0.1265 µM), 0.589; with IMD-0354 + Luminespib (first compound 0.4 µM), 0.589. The relative viability with IMD-0354 + Luminespib (first compound 1.265 µM) was found to be 0.235; with IMD-0354 + Luminespib (first compound 4 µM) it was 0.129.

For the cell line HOP-62, the relative viability with IMD-0354 + Dasatinib (first compound 0.04 µM) was 0.629; with IMD-0354 + Dasatinib (first compound 0.1265 µM), 0.637; with IMD-0354 + Dasatinib (first compound 0.4 µM), 0.441; in the assay with IMD-0354 + Dasatinib (first compound 1.265 µM), 0.213; with IMD-0354 + Dasatinib (first compound 4 µM) it was 0.164; with CX-5461 + Crizotinib (first compound 0.01 µM), 0.996. Further, the relative viability in the assay with CX-5461 + Crizotinib (first compound 0.03162 µM) was found to be 0.901; with CX-5461 + Crizotinib (first compound 0.1 µM) it was 0.858; in the assay with CX-5461 + Crizotinib (first compound 0.3162 µM) it was 0.624; with CX-5461 + Crizotinib (first compound 1 µM) it was 1.09; with IMD-0354 + Navitoclax (first compound 0.04 µM), 1.02; with IMD-0354 + Navitoclax (first compound 0.1265 µM), 0.976. Besides, the relative viability in the assay with IMD-0354 + Navitoclax (first compound 0.4 µM) was found to be 0.504; with IMD-0354 + Navitoclax (first compound 1.265 µM) it was 0.78; with IMD-0354 + Navitoclax (first compound 4 µM), 0.295; with IMD-0354 + Luminespib (first compound 0.04 µM), 0.998; in the assay with IMD-0354 + Luminespib (first compound 0.1265 µM), 0.864; with IMD-0354 + Luminespib (first compound 0.4 µM), 0.53. Moreover, the relative viability turned out to be 0.509 in the assay with IMD-0354 + Luminespib (first compound 1.265 µM) and 0.166 in the assay with IMD-0354 + Luminespib (first compound 4 µM).

Consider IA-LM, for which the relative viability in the assay with CX-5461 + Crizotinib (first compound 0.01 µM) was 0.968; with CX-5461 + Crizotinib (first compound 0.03162 µM), 0.813; with CX-5461 + Crizotinib (first compound 0.1 µM), 0.821; with CX-5461 + Crizotinib (first compound 0.3162 µM) it was 0.836; with CX-5461 + Crizotinib (first compound 1 µM), 0.33; with IMD-0354 + Navitoclax (first compound 0.04 µM), 0.778. In addition, the relative viability was 0.662 with IMD-0354 + Navitoclax (first compound 0.1265 µM), 0.381 with IMD-0354 + Navitoclax (first compound 0.4 µM), 0.122 with IMD-0354 + Navitoclax (first compound 1.265 µM) and 0.0656 with IMD-0354 + Navitoclax (first compound 4 µM).

For the cell line LC-2-ad, the relative viability came to 0.644 in the assay with IMD-0354 + Dasatinib (first compound 0.04 µM); 0.486 in the assay with IMD-0354 + Dasatinib (first compound 0.1265 µM); 0.253 with IMD-0354 + Dasatinib (first compound 0.4 µM); 0.146 with IMD-0354 + Dasatinib (first compound 1.265 µM); 0.126 with IMD-0354 + Dasatinib (first compound 4 µM); 0.491 with CX-5461 + Crizotinib (first compound 0.01 µM). In addition, the relative viability in the assay with CX-5461 + Crizotinib (first compound 0.03162 µM) stood at 0.522; in the assay with CX-5461 + Crizotinib (first compound 0.1 µM), 0.363; with CX-5461 + Crizotinib (first compound 0.3162 µM) it was 0.286; in the assay with CX-5461 + Crizotinib (first compound 1 µM), 0.454; with IMD-0354 + Navitoclax (first compound 0.04 µM) it was 0.408; in the assay with IMD-0354 + Navitoclax (first compound 0.1265 µM), 0.395. For the same cell line, the relative viability in the assay with IMD-0354 + Navitoclax (first compound 0.4 µM) stood at 0.199; in the assay with IMD-0354 + Navitoclax (first compound 1.265 µM), 0.0893; with IMD-0354 + Navitoclax (first compound 4 µM) it was 0.105; in the assay with IMD-0354 + Luminespib (first compound 0.04 µM), 1.01; in the assay with IMD-0354 + Luminespib (first compound 0.1265 µM), 0.87; in the assay with IMD-0354 + Luminespib (first compound 0.4 µM), 0.674. The values for the relative viability with IMD-0354 + Luminespib (first compound 1.265 µM) and with IMD-0354 + Luminespib (first compound 4 µM) were 0.312 and 0.226, respectively.

For the cell line LCLC-97TM1, the relative viability with IMD-0354 + Dasatinib (first compound 0.04 µM) worked out at 0.881; with IMD-0354 + Dasatinib (first compound 0.1265 µM) it was 0.77; with IMD-0354 + Dasatinib (first compound 0.4 µM), 0.386; in the assay with IMD-0354 + Dasatinib (first compound 1.265 µM) it was 0.238; with IMD-0354 + Dasatinib (first compound 4 µM), 0.145; with CX-5461 + Crizotinib (first compound 0.01 µM) it was 0.436. Also, the relative viability with CX-5461 + Crizotinib (first compound 0.03162 µM) was 0.422; with CX-5461 + Crizotinib (first compound 0.1 µM) it was 0.286; with CX-5461 + Crizotinib (first compound 1 µM), 0.436; with IMD-0354 + Navitoclax (first compound 0.1265 µM) it was 0.331; in the assay with IMD-0354 + Navitoclax (first compound 0.4 µM), 0.368; with IMD-0354 + Navitoclax (first compound 1.265 µM), 0.322. The relative viability with IMD-0354 + Navitoclax (first compound 4 µM) was 0.205; in the assay with IMD-0354 + Luminespib (first compound 0.04 µM) it was 0.735; with IMD-0354 + Luminespib (first compound 0.1265 µM), 0.705; in the assay with IMD-0354 + Luminespib (first compound 0.4 µM), 0.529; in the assay with IMD-0354 + Luminespib (first compound 1.265 µM), 0.251; with IMD-0354 + Luminespib (first compound 4 µM), 0.148.

In the case of LCLC-103H, the relative viability was 0.42 with IMD-0354 + Dasatinib (first compound 0.04 µM); 0.487 with IMD-0354 + Dasatinib (first compound 0.1265 µM); 0.311 with IMD-0354 + Dasatinib (first compound 0.4 µM); 0.232 with IMD-0354 + Dasatinib (first compound 1.265 µM); 0.201 in the assay with IMD-0354 + Dasatinib (first compound 4 µM); 1.12 with CX-5461 + Crizotinib (first compound 0.01 µM). Further, the relative viability with CX-5461 + Crizotinib (first compound 0.03162 µM) is 1.08; with CX-5461 + Crizotinib (first compound 0.1 µM), 1.13; in the assay with CX-5461 + Crizotinib (first compound 0.3162 µM), 1.04; with CX-5461 + Crizotinib (first compound 1 µM), 1.08; with IMD-0354 + Luminespib (first compound 0.04 µM) it was 1.1; with IMD-0354 + Luminespib (first compound 0.1265 µM), 0.894. The relative viability with IMD-0354 + Luminespib (first compound 0.4 µM) stood at 0.744; with IMD-0354 + Luminespib (first compound 1.265 µM) it was 0.432; in the assay with IMD-0354 + Luminespib (first compound 4 µM) it was 0.222.

For LK-2, the relative viability with IMD-0354 + Dasatinib (first compound 0.04 µM) came out at 0.291; with IMD-0354 + Dasatinib (first compound 0.1265 µM) it was 0.288; in the assay with IMD-0354 + Dasatinib (first compound 0.4 µM) it was 0.309; with IMD-0354 + Dasatinib (first compound 1.265 µM), 0.224; with IMD-0354 + Dasatinib (first compound 4 µM), 0.22; in the assay with CX-5461 + Crizotinib (first compound 0.03162 µM) it was 0.188. Further, the relative viability with CX-5461 + Crizotinib (first compound 0.1 µM) was determined as 0.214; in the assay with CX-5461 + Crizotinib (first compound 1 µM), 0.239; with IMD-0354 + Navitoclax (first compound 0.04 µM), 1.15; with IMD-0354 + Navitoclax (first compound 0.1265 µM), 0.812; with IMD-0354 + Navitoclax (first compound 1.265 µM) it was 0.777; in the assay with IMD-0354 + Navitoclax (first compound 4 µM), 0.247. For the same cell line, the relative viability with IMD-0354 + Luminespib (first compound 0.04 µM) worked out at 0.195; with IMD-0354 + Luminespib (first compound 0.1265 µM), 0.194; with IMD-0354 + Luminespib (first compound 0.4 µM), 0.184; in the assay with IMD-0354 + Luminespib (first compound 1.265 µM), 0.195; with IMD-0354 + Luminespib (first compound 4 µM), 0.167.

The values above are taken from the supplement of paper PMC10307832.
